Experiment [1] has as its target T1, α4β1 integrin (Homo sapiens, UniProt P05556+P13612).
T1 construct: endogenous in cells; host or cells: U-937 cells
The experiment in a line: U-937 cell adhesion to human VCAM-1 (α4β1 binding assay). The note with it: U-937 cells, immobilized human VCAM-1; read-out: IC50 values in the α4β1 assays. The experiment is classed as cell-based. The protocol:
U-937 Cell Adhesion to Human VCAM-1 (α4β1 Binding Assay)
Recombinant human soluble VCAM-1 (R&D Systems Ltd., UK) at 2 μg/ml in PBS was immobilized overnight onto microtiter plates. Unbound VCAM-1 was washed away and VCAM-1 coated plates were blocked with bovine serum albumin (BSA) 2,5% in PBS for 2 h at room temperature. U-937 cells were labelled with 5-carboxyfluorescein diacetate (5-CFDA) in order to detect bound cells to the wells. Test compounds were added to the wells followed by U-937 cells and the adhesion assay was performed for 1 h at 37° C. Following incubation, the wells were emptied and washed. Inhibition of binding was measured by the quantity of fluorescence bound to the plate for each of the various concentrations of test compound, as well as for controls containing no test compound, with a Cytofluor 2300 fluorescence measurement system.

The target of experiment [2] is T2, α4β7 integrin (Homo sapiens, UniProt P13612+P26010).
T2 construct: endogenous in cells; host or cells: RPMI 8866 cells
T2 sequence (P13612 34-1032): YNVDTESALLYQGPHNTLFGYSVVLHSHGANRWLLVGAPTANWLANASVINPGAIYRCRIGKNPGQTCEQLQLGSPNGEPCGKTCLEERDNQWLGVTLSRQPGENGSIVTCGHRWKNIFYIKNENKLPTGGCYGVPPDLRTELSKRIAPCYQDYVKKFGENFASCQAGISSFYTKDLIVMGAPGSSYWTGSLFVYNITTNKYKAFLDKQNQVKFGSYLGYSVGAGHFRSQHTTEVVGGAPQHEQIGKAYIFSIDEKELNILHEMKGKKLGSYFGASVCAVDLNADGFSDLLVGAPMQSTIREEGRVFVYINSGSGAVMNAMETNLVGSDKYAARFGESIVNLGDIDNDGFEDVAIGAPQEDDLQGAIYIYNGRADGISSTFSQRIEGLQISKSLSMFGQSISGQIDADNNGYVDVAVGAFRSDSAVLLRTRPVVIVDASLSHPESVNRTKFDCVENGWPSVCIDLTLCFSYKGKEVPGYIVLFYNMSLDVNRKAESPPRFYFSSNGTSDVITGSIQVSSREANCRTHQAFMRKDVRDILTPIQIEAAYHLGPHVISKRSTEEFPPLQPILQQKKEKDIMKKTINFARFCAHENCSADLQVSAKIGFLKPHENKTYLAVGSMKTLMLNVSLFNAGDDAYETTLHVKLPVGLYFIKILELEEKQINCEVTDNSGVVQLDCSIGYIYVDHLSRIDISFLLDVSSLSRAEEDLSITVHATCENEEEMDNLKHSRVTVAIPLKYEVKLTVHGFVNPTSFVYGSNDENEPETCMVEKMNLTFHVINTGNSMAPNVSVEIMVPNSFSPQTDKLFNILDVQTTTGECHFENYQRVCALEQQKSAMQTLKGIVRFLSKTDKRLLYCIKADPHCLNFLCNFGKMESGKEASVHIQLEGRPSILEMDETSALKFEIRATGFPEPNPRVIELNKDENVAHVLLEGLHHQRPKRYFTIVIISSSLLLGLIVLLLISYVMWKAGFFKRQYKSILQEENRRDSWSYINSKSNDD
T2 sequence (P26010 20-798): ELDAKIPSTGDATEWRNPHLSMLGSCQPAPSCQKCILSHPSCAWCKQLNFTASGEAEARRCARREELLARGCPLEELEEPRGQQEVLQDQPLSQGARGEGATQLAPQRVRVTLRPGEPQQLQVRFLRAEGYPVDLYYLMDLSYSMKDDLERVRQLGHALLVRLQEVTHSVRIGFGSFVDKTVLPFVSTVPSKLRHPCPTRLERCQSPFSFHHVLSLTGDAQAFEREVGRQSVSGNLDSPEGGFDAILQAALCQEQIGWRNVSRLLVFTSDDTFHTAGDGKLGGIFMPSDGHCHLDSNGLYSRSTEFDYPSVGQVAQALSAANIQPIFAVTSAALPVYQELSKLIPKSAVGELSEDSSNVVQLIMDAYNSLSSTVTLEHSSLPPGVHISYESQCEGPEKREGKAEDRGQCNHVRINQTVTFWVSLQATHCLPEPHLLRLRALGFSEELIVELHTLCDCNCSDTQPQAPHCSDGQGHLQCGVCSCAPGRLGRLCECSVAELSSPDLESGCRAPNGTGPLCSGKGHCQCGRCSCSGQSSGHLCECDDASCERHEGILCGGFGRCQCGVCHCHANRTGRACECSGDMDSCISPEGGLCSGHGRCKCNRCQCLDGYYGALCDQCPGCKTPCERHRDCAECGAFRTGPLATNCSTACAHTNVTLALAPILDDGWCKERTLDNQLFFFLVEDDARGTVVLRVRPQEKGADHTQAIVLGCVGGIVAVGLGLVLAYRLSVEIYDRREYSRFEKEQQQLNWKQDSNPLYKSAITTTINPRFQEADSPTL
The experiment in a line: RPMI 8866 cell adhesion to mouse MAdCAM-1 (α4β7 binding assay). The format is cell-based. The note with it: RPMI 8866 cells, immobilized mouse MAdCAM-1. The protocol:
RPMI 8866 Cell Adhesion to Mouse MAdCAM-1 (α4β7 Binding Assay)
Recombinant mouse MAdCAM-1 was coated on a 96-well plate overnight. Unbound MAdCAM-1 was washed away and plates were blocked with 0,5% BSA. Cells were labelled with BCECF-AM and added to ligand-coated wells. Test compounds were added to the wells followed by RPMI 8866 and the adhesion assay was performed for 45 min at room temperature. Following incubation, the wells were emptied and washed. Inhibition of binding was measured by the quantity of fluorescence bound to the plate for each of the various concentrations of test compound, as well as for controls containing no test compound, with a Cytofluor 2300 fluorescence measurement system.

Setting [3] is: read-out: IC50 values in the α4β7 assays.
[4] abbreviates: read-out: IC50 values in the α4β7.

Like-named read-outs stand apart in the source and are kept apart here.

T1 sequence (P05556 21-798, one chain of several): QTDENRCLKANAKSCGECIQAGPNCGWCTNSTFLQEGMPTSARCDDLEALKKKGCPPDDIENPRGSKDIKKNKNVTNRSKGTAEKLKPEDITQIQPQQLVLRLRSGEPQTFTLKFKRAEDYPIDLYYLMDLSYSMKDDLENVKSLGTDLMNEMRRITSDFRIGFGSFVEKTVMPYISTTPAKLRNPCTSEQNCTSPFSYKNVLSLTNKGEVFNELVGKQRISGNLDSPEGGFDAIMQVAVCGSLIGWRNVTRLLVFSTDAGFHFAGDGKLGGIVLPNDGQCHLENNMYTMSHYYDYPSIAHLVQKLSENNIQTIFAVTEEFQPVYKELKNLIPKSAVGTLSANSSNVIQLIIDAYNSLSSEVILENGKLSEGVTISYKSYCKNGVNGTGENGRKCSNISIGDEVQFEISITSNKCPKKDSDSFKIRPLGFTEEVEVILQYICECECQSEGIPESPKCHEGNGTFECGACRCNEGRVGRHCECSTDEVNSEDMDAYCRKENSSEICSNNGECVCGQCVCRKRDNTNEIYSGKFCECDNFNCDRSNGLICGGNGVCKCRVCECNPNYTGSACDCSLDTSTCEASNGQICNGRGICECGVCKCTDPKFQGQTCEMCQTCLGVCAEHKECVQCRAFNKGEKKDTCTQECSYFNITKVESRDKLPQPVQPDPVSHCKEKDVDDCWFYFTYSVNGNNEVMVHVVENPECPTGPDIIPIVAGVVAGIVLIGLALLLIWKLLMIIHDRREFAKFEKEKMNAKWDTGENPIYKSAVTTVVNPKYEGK

`CN(C(=O)N[C@@H](Cc1ccc(NC(=O)c2c(Cl)cccc2Cl)cc1)C(=O)O)c1ccccc1S(=O)(=O)c1ccccc1` [Example 23, (S)-2-[3-(2-Benzenesulfonylphenyl)-3-methylureido]-3-[4-(2,6-dichlorobenzoylamino)phenyl]propionic acid]: the IC50 (in general, the midpoint of a concentration-inhibition curve) in experiment [1] was under 100 nM; in experiment [2] (setting [3]), 1000 to 10000 nM.
`O=C(Nc1ccccc1S(=O)(=O)N1CCCCC1)N[C@@H](Cc1ccc(NC(=O)c2c(Cl)cccc2Cl)cc1)C(=O)O` [Example 38, (S)-3-[4-(2,6-Dichlorobenzoylamino)phenyl]-2-{3-[2-(piperdine-1-sulfonyl)phenyl]ureido}propionic acid]: the IC50 in experiment [1] was under 100 nM; in experiment [2] (setting [3]), 1000 to 10000 nM.
In the same order, the values of `CN(C1CCCCC1)S(=O)(=O)c1ccccc1NC(=O)N[C@@H](Cc1ccc(NC(=O)c2c(Cl)cccc2Cl)cc1)C(=O)O` [Example 40] are under 100 nM and 1000 to 10000 nM.
Consider `CN(C(=O)N[C@@H](Cc1ccc(NC(=O)c2c(Cl)cccc2Cl)cc1)C(=O)O)c1ccccc1S(=O)(=O)N1CCCCC1` [Example 76, (S)-3-[4-(2,6-Dichlorobenzoylamino)phenyl]-2-{3-methyl-3-[2-(piperidine-1-sulfonyl)-phenyl]ureido}propionic acid], for which the IC50 was under 100 nM in experiment [1] and 1000 to 10000 nM in experiment [2] (setting [3]).
As for `CCCN(C(=O)N[C@@H](Cc1ccc(NC(=O)c2c(Cl)cncc2Cl)cc1)C(=O)O)c1ccccc1C(=O)N(C)C1CCCCC1` [Example 82], the IC50 in experiment [1] and in experiment [2] (setting [4]) was under 100 nM in each case.
As for `CN(C(=O)c1ccccc1N(CC1CC1)C(=O)N[C@@H](Cc1ccc(NC(=O)c2c(Cl)cncc2Cl)cc1)C(=O)O)C1CCCCC1` [Example 83], the IC50 in experiment [1] and in experiment [2] (setting [4]) was under 100 nM in each case.
In the case of `CN1CCN(S(=O)(=O)c2ccccc2NC(=O)N[C@@H](Cc2ccc(NC(=O)c3c(Cl)cncc3Cl)cc2)C(=O)O)CC1` [Example 90, (S)-3-(4-{[1-(3,5-Dichloropyridin-4-yl)methanoyl]amino}phenyl)-2-{3-[2-(4-methylpiperazine-1-sulfonyl)phenyl]ureido}propionic acid], the IC50 in experiment [1] and in experiment [2] (setting [4]) was under 100 nM in each case.
Regarding `CN1CCN(C(=O)Oc2ccc(C[C@H](NC(=O)Nc3ccccc3S(=O)(=O)c3ccccc3)C(=O)O)cc2)CC1` [Example 114, 4-Methylpiperazine-1-carboxylic acid 4-{(S)-2-[3-(2-benzenesulfonylphenyl)ureido]-2-carboxyethyl}phenyl ester], in experiment [2] (setting [3]), the IC50 was in the range of 1000 to 10000 nM.

The values above are taken from patent US7253171B2 (Laboratorios Almirall, S.A., priority 2001, dated 2007).
